Source: patent US12077503B2, “Substituted cyclic amides and their use as herbicides” (FMC CORPORATION, priority 2015, dated 2024)
Where two headings read alike, the source gives them in different places.

Legend:
Assay type in all cases: in vivo
[1] = system: pigweed (Amaranthus retroflexus); test: Test A preemergence; settings: Amaranthus retroflexus, pre-emergence, 240 h, preemergence, 0 to 100 scale where 0 is no effect and 100 is complete control, read-out: Pigweed plant response rating; for pest or weed control at 125 g/ha: 125 g ai/ha, visual injury rating, approximately 10 d; for pest or weed control at 500 g/ha: 500 g ai/ha
[2] = system: giant foxtail (Setaria faberii); test: Test A preemergence; settings: Setaria faberi, pre-emergence, 240 h, preemergence, 0 to 100 scale where 0 is no effect and 100 is complete control, read-out: Foxtail, Giant plant response rating; for pest or weed control at 125 g/ha: 125 g ai/ha, visual injury rating, approximately 10 d; for pest or weed control at 500 g/ha: 500 g ai/ha
In short: (§1)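 In a loam soil and sand blend, planted seeds got a preemergence directed soil spray, and young plants at the one- to two-leaf stage, 2–10 cm high, got a postemergence application; ~10 d greenhouse hold; injury rated visually, 0 = none, 100 = complete control.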

[3] = system: ryegrass, Italian (Italian ryegrass, Lolium multiflorum); test: Test A preemergence; settings: Lolium multiflorum, pre-emergence, 240 h, preemergence, 0 to 100 scale where 0 is no effect and 100 is complete control, read-out: Ryegrass, Italian plant response rating; for pest or weed control at 125 g/ha: 125 g ai/ha, visual injury rating, approximately 10 d; for pest or weed control at 500 g/ha: 500 g ai/ha
In short: as §1

[4] = system: barnyardgrass (Echinochloa crus-galli); test: Test A preemergence; settings: Echinochloa crus-galli, pre-emergence, 240 h, preemergence, 0 to 100 scale where 0 is no effect and 100 is complete control, read-out: Barnyardgrass plant response rating; for pest or weed control at 125 g/ha: 125 g ai/ha, visual injury rating, approximately 10 d; for pest or weed control at 500 g/ha: 500 g ai/ha
In short: as §1

[5] = system: ragweed (common ragweed, Ambrosia elatior); test: Test A preemergence; settings: Ambrosia artemisiifolia, pre-emergence, 240 h, preemergence, 0 to 100 scale where 0 is no effect and 100 is complete control, read-out: Ragweed plant response rating; for pest or weed control at 125 g/ha: 125 g ai/ha, visual injury rating, approximately 10 d; for pest or weed control at 500 g/ha: 500 g ai/ha
In short: as §1

[6] = system: Kochia (Kochia scoparia); test: Test A preemergence; settings: Bassia scoparia, pre-emergence, 240 h, preemergence, 0 to 100 scale where 0 is no effect and 100 is complete control, read-out: Kochia plant response rating; for pest or weed control at 125 g/ha: 125 g ai/ha, visual injury rating, approximately 10 d; for pest or weed control at 500 g/ha: 500 g ai/ha
In short: as §1

[7] = system: barnyardgrass (Echinochloa crus-galli); test: Test B flooded paddy test; settings: Echinochloa crus-galli, 250 g ai/ha, Flood; 0 to 100 scale where 0 is no effect and 100 is complete control; read-out: Barnyardgrass plant response rating
In short: (§2)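 2-leaf plants; pots flooded 3 cm over soil; cpd added to paddy water; depth held; greenhouse 13–15 d; visual rating vs controls, 0 = no effect, 100 = complete control.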

[8] = system: rice (Oryra sativa); test: Test B flooded paddy test; settings: Oryza sativa, 250 g ai/ha, Flood; 0 to 100 scale where 0 is no effect and 100 is complete control; read-out: Rice plant response rating
In short: as §2

[9] = system: sedge, umbrella (small-flower umbrella sedge, Cyperus difformis); test: Test B flooded paddy test; settings: Cyperus difformis, 250 g ai/ha, Flood; 0 to 100 scale where 0 is no effect and 100 is complete control; read-out: Sedge, Umbrella plant response rating
In short: as §2

[10] = system: ducksalad (Heteranthera limosa); test: Test B flooded paddy test; settings: Heteranthera limosa, 250 g ai/ha, Flood; 0 to 100 scale where 0 is no effect and 100 is complete control; read-out: Ducksalad plant response rating
In short: as §2

[11] = system: giant foxtail (Setaria faberii); test: Test A postemergence; settings: Setaria faberi, post-emergence, 240 h; for pest or weed control at 125 g/ha: 125 g ai/ha, read-out: Foxtail, Giant plant response rating (0 to 100 scale); for pest or weed control at 500 g/ha: 500 g ai/ha, visual injury, 0 to 100 scale (0 no effect, 100 complete control), approx. 10 d, read-out: Plant response rating, Foxtail, Giant
In short: as §1

[12] = system: ryegrass, Italian (Italian ryegrass, Lolium multiflorum); test: Test A postemergence; settings: Lolium multiflorum, post-emergence, 240 h; for pest or weed control at 125 g/ha: 125 g ai/ha, read-out: Ryegrass, Italian plant response rating (0 to 100 scale); for pest or weed control at 500 g/ha: 500 g ai/ha, visual injury, 0 to 100 scale (0 no effect, 100 complete control), approx. 10 d, read-out: Plant response rating, Ryegrass, Italian
In short: as §1

[13] = system: blackgrass (Alopecurus myosuroides); test: Test A postemergence; settings: Alopecurus myosuroides, post-emergence, 240 h; for pest or weed control at 125 g/ha: 125 g ai/ha, read-out: Blackgrass plant response rating (0 to 100 scale); for pest or weed control at 500 g/ha: 500 g ai/ha, visual injury, 0 to 100 scale (0 no effect, 100 complete control), approx. 10 d, read-out: Plant response rating, Blackgrass
In short: as §1

[14] = system: Kochia (Kochia scoparia); test: Test A postemergence; settings: Bassia scoparia, post-emergence, 240 h; for pest or weed control at 125 g/ha: 125 g ai/ha, read-out: Kochia plant response rating (0 to 100 scale); for pest or weed control at 500 g/ha: 500 g ai/ha, visual injury, 0 to 100 scale (0 no effect, 100 complete control), approx. 10 d, read-out: Plant response rating, Kochia
In short: as §1

[15] = postemergence, visual injury vs untreated controls after approx. 10 d, 0 = no effect, 100 = complete control
[16] = Postemergence, visual rating about 10 d after treatment

SMILES	pest or weed control at 125 g/ha [1] [%]	pest or weed control at 500 g/ha [1] [%]	pest or weed control at 125 g/ha [2] [%]	pest or weed control at 500 g/ha [2] [%]	pest or weed control at 125 g/ha [3] [%]	pest or weed control at 500 g/ha [3] [%]	pest or weed control at 125 g/ha [4] [%]	pest or weed control at 500 g/ha [4] [%]	pest or weed control at 125 g/ha [5] [%]	pest or weed control at 500 g/ha [5] [%]	pest or weed control at 125 g/ha [6] [%]	pest or weed control at 500 g/ha [6] [%]	pest or weed control at 250 g/ha [7] [%]	pest or weed control at 250 g/ha [8] [%]	pest or weed control at 250 g/ha [9] [%]	pest or weed control at 250 g/ha [10] [%]	pest or weed control at 500 g/ha ([11]; Postemergence) [%]	pest or weed control at 500 g/ha ([12]; Postemergence) [%]	pest or weed control at 500 g/ha ([13]; Postemergence) [%]	pest or weed control at 500 g/ha ([14]; Postemergence) [%]	further results
CCc1ccc([C@H]2CNC(=O)[C@@H]2C(=O)Nc2c(F)cccc2F)cc1 [Compound 1248]	0	0	0	50	0	0	70	90	0	0	0	0	15	0	0	70	20	0	0	0	pest or weed control at 125 g/ha [11, 15]: 0%; pest or weed control at 125 g/ha [12, 15]: 0%; pest or weed control at 125 g/ha [13, 15]: 0%; pest or weed control at 125 g/ha [14, 15]: 0%
CN1C[C@H](c2ccc(F)c(C#N)c2)[C@@H](C(=O)Nc2cccc(F)c2F)C1=O [Compound 1255]	60	90	100	100	20	40	100	100	20	70	60	80	65	0	0	100	80	40	60	50	pest or weed control at 125 g/ha [11, 15]: 80%; pest or weed control at 125 g/ha [12, 15]: 20%; pest or weed control at 125 g/ha [13, 15]: 0%; pest or weed control at 125 g/ha [14, 15]: 20%
CN1C[C@H](c2ccc(C(F)F)cc2)[C@@H](C(=O)Nc2ccc(F)c(F)c2F)C1=O [Compound 1260]	90	90	90	90	50	60	90	100	80	90	80	90	80	50	0	100	90	80	80	70	pest or weed control at 125 g/ha [11, 15]: 80%; pest or weed control at 125 g/ha [12, 15]: 60%; pest or weed control at 125 g/ha [13, 15]: 70%; pest or weed control at 125 g/ha [14, 15]: 60%
Cc1nc([C@H]2CN(C)C(=O)[C@@H]2C(=O)Nc2cccc(F)c2F)cs1 [Compound 1281]	30	40	40	90	0	20	40	90	0	60	0	60	0	0	0	50	30	0	0	30	pest or weed control at 125 g/ha [11, 16]: 20%; pest or weed control at 125 g/ha [12, 16]: 0%; pest or weed control at 125 g/ha [13, 16]: 0%; pest or weed control at 125 g/ha [14, 16]: 0%
COc1cc([C@H]2CN(C)C(=O)[C@@H]2C(=O)Nc2ccccc2F)ccc1F [Compound 1298]	0	0	90	90	0	0	80	90	0	20	0	80	50	15	0	80	90	0	0	0	pest or weed control at 125 g/ha [11, 16]: 70%; pest or weed control at 125 g/ha [12, 16]: 0%; pest or weed control at 125 g/ha [13, 16]: 0%; pest or weed control at 125 g/ha [14, 16]: 0%
